This passage reports Ki results from BindingDB's records for doi:10.1016/0166-4328(96)00089-7 (Glaxo Research and Development, 1996).

The pKi is −log10 of the Ki, conventionally taken in molar units.

In assay [1] the target is 5-hydroxytryptamine receptor 4 (Cavia porcellus, UniProt O70528).
The target in assay [2] is 5-hydroxytryptamine receptor 2A (Rattus norvegicus, UniProt P14842).
For assay [3], the target named is 5-hydroxytryptamine receptor 5A (Homo sapiens, UniProt P47898).
The target of assay [4] is T1, 5-hydroxytryptamine receptor 2C (Sus scrofa, UniProt G7ZKZ7).
T1 sequence (G7ZKZ7 whole entry): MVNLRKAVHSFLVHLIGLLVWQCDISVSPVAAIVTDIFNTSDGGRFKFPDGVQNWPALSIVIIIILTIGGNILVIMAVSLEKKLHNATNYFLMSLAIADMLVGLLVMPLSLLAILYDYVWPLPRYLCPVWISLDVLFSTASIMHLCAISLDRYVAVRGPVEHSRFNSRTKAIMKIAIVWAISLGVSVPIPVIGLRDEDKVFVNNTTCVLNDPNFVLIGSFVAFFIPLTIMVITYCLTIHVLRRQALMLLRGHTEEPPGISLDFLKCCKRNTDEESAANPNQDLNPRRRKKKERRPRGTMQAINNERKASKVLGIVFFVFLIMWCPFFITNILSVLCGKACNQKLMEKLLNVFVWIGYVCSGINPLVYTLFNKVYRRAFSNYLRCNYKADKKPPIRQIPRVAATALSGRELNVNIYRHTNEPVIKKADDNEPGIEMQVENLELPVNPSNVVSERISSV

Assay [5] addresses T2, 5-hydroxytryptamine receptor 3A (Rattus norvegicus, UniProt P35563).
T2 sequence (P35563 whole entry): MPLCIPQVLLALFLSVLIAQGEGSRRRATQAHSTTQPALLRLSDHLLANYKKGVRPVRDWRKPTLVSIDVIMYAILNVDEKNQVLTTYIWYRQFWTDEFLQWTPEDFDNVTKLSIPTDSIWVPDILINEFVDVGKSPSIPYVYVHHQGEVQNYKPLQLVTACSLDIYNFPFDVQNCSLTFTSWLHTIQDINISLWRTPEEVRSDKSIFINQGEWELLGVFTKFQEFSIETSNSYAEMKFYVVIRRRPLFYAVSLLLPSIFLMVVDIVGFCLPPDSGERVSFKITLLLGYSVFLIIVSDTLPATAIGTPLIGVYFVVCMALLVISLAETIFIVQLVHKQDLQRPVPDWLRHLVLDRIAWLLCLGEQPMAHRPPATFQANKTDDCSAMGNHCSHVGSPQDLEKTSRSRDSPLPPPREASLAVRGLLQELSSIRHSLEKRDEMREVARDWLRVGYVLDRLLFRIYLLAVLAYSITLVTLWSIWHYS

pKi: −log10 of the molar value.

Chain of 5-hydroxytryptamine receptor 5A (P47898 whole entry): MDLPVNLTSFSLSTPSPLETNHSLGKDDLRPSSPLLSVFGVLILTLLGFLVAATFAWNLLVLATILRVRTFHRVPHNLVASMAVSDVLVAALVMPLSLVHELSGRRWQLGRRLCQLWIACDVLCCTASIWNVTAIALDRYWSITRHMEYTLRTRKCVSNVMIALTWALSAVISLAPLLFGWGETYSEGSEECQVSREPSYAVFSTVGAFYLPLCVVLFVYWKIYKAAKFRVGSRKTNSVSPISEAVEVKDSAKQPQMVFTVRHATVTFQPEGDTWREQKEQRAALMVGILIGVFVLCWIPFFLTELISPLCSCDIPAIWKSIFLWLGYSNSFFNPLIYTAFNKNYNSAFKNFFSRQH
Chain of 5-hydroxytryptamine receptor 2A (P14842 whole entry): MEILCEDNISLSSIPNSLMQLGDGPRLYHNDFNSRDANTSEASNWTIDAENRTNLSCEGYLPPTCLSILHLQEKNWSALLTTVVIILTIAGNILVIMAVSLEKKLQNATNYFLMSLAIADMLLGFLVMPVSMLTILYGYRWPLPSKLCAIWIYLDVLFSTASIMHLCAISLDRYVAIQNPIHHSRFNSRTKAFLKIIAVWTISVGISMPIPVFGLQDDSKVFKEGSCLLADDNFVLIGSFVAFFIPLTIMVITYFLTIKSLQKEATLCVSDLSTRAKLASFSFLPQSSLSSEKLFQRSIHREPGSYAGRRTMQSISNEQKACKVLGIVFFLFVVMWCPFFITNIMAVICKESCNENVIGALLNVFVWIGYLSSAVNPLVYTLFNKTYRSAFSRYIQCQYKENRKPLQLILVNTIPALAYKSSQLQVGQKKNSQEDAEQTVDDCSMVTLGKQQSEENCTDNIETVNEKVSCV
Chain of 5-hydroxytryptamine receptor 4 (O70528 whole entry): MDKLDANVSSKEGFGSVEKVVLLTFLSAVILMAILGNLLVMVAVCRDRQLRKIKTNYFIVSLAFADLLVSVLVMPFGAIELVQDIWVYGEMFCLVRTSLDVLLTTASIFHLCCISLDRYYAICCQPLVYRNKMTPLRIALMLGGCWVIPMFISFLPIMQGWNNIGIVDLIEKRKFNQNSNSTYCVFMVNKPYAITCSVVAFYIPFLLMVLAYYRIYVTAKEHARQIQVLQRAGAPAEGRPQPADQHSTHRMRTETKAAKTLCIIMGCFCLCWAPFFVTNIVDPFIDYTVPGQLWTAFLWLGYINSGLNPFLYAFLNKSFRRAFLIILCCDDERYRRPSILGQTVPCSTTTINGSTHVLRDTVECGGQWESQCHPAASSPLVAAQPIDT

Regarding `COc1ccc(NC(=O)c2ccc(-c3ccc(-c4noc(C)n4)cc3C)cc2)cc1N1CCN(C)CC1` [SMR001230745], the pKi in assay [1] is < 5.00; in assay [2], 7.40; in assay [3], 5.20; in assay [4], 6.20; in assay [5] it was 5.20.
